Entries after “also recorded” stand apart in the source; their conditions may differ.
Legend:
ALK mutant C1156Y = ALK mutant C1156Y (Homo sapiens, UniProt Q9UM73, C1156Y); experiment: In vitro enzyme inhibition study; assay type: biochemical; settings: difference in inhibitory activity within 3 times
Description: (§1) The inhibitory activities were low for other serine, threonine, and tyrosine […], except for the EGFR wild type, within the tested concentration range.

ALK mutant L1196M = ALK mutant L1196M (Homo sapiens, UniProt Q9UM73, L1196M); experiment: In vitro enzyme inhibition study; assay type: biochemical; settings: difference in inhibitory activity within 3 times
ALK mutant L1196M, sequence (Q9UM73 19-1620 L1196M): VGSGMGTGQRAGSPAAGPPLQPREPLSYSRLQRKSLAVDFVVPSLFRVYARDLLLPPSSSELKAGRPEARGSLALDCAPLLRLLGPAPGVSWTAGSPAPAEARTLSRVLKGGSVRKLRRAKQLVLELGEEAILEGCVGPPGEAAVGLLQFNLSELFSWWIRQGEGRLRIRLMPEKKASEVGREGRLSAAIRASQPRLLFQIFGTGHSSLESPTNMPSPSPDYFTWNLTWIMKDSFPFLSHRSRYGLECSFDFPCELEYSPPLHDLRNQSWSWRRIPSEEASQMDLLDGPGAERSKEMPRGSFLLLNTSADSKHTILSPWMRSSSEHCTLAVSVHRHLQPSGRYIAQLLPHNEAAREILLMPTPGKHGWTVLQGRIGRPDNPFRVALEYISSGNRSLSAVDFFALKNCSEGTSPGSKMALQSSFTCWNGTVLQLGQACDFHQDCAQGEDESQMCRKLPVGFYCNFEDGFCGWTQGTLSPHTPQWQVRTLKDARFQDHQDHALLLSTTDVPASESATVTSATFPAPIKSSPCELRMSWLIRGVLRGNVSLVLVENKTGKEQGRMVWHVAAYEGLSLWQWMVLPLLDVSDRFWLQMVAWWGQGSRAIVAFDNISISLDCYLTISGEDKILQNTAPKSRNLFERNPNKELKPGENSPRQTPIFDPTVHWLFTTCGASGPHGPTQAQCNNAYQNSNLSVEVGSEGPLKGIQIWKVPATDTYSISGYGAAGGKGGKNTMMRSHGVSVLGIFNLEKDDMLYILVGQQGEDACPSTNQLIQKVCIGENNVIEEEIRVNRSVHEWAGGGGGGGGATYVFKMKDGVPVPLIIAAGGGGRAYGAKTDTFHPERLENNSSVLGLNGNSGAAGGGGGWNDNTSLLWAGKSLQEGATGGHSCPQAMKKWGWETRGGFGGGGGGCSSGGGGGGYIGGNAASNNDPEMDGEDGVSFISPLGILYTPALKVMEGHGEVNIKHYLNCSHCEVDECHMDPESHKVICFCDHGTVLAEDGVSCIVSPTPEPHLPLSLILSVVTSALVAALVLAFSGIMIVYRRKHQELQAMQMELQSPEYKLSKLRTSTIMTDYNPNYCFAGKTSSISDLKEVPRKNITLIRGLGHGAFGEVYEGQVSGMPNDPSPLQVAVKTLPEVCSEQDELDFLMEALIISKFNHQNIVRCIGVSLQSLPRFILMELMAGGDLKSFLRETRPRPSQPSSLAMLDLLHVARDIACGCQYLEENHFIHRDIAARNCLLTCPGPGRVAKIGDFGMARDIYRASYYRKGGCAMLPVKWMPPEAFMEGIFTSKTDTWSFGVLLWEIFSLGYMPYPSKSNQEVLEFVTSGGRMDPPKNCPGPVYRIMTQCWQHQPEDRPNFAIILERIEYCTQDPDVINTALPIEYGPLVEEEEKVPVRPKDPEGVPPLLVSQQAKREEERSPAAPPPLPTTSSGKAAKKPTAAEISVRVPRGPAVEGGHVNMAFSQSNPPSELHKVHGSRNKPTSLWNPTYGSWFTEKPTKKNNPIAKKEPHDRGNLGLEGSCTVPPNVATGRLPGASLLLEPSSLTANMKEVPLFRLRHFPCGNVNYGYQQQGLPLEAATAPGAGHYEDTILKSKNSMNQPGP
Description: as §1

ALK wild type = ALK wild type (Homo sapiens, UniProt Q9UM73); experiment: In vitro enzyme inhibition study; assay type: biochemical; settings: difference in inhibitory activity within 3 times
ALK wild type, sequence (Q9UM73 19-1620): as the sequence (Q9UM73 19-1620 L1196M) above, with M1178L counted along it
Description: as §1

op-kappa = op-kappa (Homo sapiens, UniProt P41145); experiment: GPCR antagonist screening assay; assay type: cell-based
op-kappa, sequence (P41145 whole entry): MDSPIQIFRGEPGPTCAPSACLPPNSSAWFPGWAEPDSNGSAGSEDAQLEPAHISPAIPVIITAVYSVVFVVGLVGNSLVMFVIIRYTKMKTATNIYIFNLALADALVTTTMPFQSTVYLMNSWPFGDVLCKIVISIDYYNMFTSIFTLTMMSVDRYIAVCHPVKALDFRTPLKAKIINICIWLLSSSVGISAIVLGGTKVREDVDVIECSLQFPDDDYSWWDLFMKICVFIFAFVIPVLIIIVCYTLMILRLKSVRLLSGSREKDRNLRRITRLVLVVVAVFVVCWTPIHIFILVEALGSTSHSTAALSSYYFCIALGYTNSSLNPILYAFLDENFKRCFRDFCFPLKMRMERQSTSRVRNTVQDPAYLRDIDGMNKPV

in vivo = settings: cynomolgus monkey, po; for AUC(0-t) / Cmax: 50 mg/kg

ALK mutant C1156Y, sequence (Q9UM73 19-1620 C1156Y): as the sequence (Q9UM73 19-1620 L1196M) above, with C1138Y, M1178L counted along it

For `COc1cc(N2CCC3(CCN(C)CC3)CC2)ccc1Nc1ncc(Cl)c(Nc2ccccc2P(C)(C)=O)n1` [WX-0593], the “inhibitory activity compared with brigatinib” value (ALK mutant C1156Y) was “comparable with the activity of brigatinib; also recorded: comparable to brigatinib”, the “inhibitory activity compared with brigatinib” value (ALK mutant L1196M) was “comparable with the activity of brigatinib; also recorded: comparable to brigatinib” and the “inhibitory activity compared with brigatinib” value (ALK wild type) was “comparable with the activity of brigatinib; also recorded: comparable to brigatinib”. For the same compound, the IC50 (op-kappa) was > 10 µM, the MTD (in vivo) was 50 mg/kg and the AUC(0-t) (in vivo; female) was 50.6 µg·h/mL. For the same compound, the Cmax (in vivo; female) was 4.01 µg/mL, the AUC(0-t) (in vivo; male) was 35 µg·h/mL and the Cmax (in vivo; male) was 2.18 µg/mL.

From publication PMC8795197, “Safety and activity of WX-0593 (Iruplinalkib) in patients with ALK- or ROS1-rearranged advanced non-small cell lung cancer: a phase 1 dose-escalation and dose-expansion trial” (Signal Transduction and Targeted Therapy, 2022)
